Measured values taken from US20220213030A1, “AMINOGUANIDINE HYDRAZONES AS RETROMER STABILIZERS USEFUL FOR TREATING NEUROLOGICAL DISEASES” (OSPEDALE SAN RAFFAELE SRL, priority 2019, published 2022).

How the values were obtained:
[1] = test system: Vps35, Vps26 and Vps29 mRNA; assay: Real time PCR of CRC genes in Neuro2a; format: cell-based, mouse; conditions: 10 μM, 48 hours
Procedure: Compound 2a increases the stability of the retromer complex in vitro. We further validated this concept by measuring VPS35 degradation rates by a cycloheximide (CHX) chase assay. Neuro2a cells received vehicle or lead 2a (10 μM) for 24 hours, then CHX was added to the medium, and VPS35 levels were measured by western blot. […] As is the case with R55 (Mecozzi, Berman et al. 2014), compound 2a should not influence the transcription levels of CRC genes in Neuro2a cells.
Lumbar spinal tracts dissected from saline perfused mice or Neuro2a cells were lysed to extract total RNAs using the RNeasy Mini Kit (Qiagen) according to the manufacturer's recommendations, including DNase (Promega) digestion. We synthetized the cDNA using ThermoScript RT-PCR System (Invitrogen) and Random Hexamer (Invitrogen), according to the manufacturer's instructions. The LightCycler 480 System (Roche) and LightCycler 480 SYBR Green I Master Mix (Roche) were used for real-time PCR experiments. Normalization was obtained using the housekeeping gene Histone H3
(H3 F: 5′-[…]-3′ H3 R: 5′-[…]-3′). The following specific primers were used for gene expression analysis: […]

[2] = test system: poly-ubiquitinated proteins; assay: Poly-ubiquitinated proteins in lumbar spinal cord of G93A mice; format: in vivo, mouse; conditions: 10 mg/kg, day 100
Text: Ubiquitinated inclusions accumulate in MNs of sALS and fALS patients and in lumbar SCs of ALS mice (Kabashi 2001). High levels of ubiquitinated proteins may represent an overwhelmed response of MNs to protein misfolding and aggregation, as well as a reduction of lysosome functionality. We characterized poly-ubiquitinated proteins in lumbar SCs protein extracts by 10% denaturating PAGE. We included in our experiments protein extracts from Neuro2a cells treated with the proteasome inhibitor Bortezomib (BTZ), able to increase poly-ubiquitination, as an experimental control (FIG. 13A). […] We next scored ubiquitin MFI levels in ventral horn MNs of G93A mice. […] As previously observed in Neuro2a cells, the overexpression of G93A plasmids affects the Golgi apparatus, therefore we asked whether similar alterations can occur in G93A mice by labeling lumbar sections for the cis-Golgi matrix protein GM130.
Lumbar spinal cords were dissected from saline perfused mice and rapidly homogenized in the following lysis buffer: Tris-HCl 10 mM pH 8, EDTA pH 8 1 mM, NaCl 100 mM, NP40 1% and protease inhibitor cocktail (Sigma). […] Protein concentrations were measured by BCA protein assay kit (Thermofisher) according to the manufacturer's recommendations. […] Quantifications were done using the Image Lab 6.0.1 software (Bio-Rad). […]

N=C(N)NN=Cc1cccc(C=NNC(=N)N)c1 [Compound 2a, 1,3-Bis-amino guanidine phenyl hydrazone]
mRNAs levels of Vps35, Vps26 and Vps29 [1]: did not change
MFI levels of ubiquitin fluorescence in ventral horn MNs [2]: vehicle-treated G93A MNs were higher than levels scored in compound 2a-treated G93A mice
poly-ubiquitination (WB densitometry) [2]: substantially reduced
